{
  "source": "patent US20060014738A1",
  "about": "“Fungicidal combination of active substances” (priority 2002, published 2006)",
  "data": [
    {"tested_on": "Pyrenophora teres", "assay": "Pyrenophora teres test (barley)/curative", "format": "in vivo", "settings": "curative, application rate of active compound 100 g/ha, evaluation 7 days after inoculation, 0% = control, 100% = no infection", "procedure": "Pyrenophora teres Test (Barley)/Curative [table] To produce a suitable preparation of active compound, 1 part by weight of active compound or active compound combination is mixed with the stated amount of solvent and emulsifier, and the concentrate is diluted with water to the desired concentration. To test for curative activity, young plants are sprayed with a conidia suspension of Pyrenophora teres. The plants remain in an incubation cabin at 20° C. and 100% relative atmospheric humidity for 48 hours. The plants are then sprayed with the preparation of active compound at the stated application rate. The plants are placed in a greenhouse at a temperature of about 20° C. and a relative atmospheric humidity of about 80%. Evaluation is carried out 7 days after the inoculation. 0% means an efficacy which corresponds to that of the control, whereas an efficacy of 100% means that no infection is observed.", "units": {"Efficacy in %": "%"}, "values": [
      {"compound": "CON=C(C1=NOCCO1)c1ccccc1Oc1ncnc(Oc2ccccc2Cl)c1F", "note": "[(III), 3-[1-[2-(4-<2-chlorophenoxy>-5-fluoropyrimid-6-yloxy)phenyl]-1-(methox-imino)methyl]-5,6-dihydro-1,4,2-dioxazine]", "Efficacy in %": 67},
      {"compound": "OC(Cc1ccccc1Cl)(Cn1nc[nH]c1=S)C1(Cl)CC1", "note": "(stereo not drawn) [(II), 2-[2-(1-chlorocyclopropyl)-3-(2-chlorophenyl)-2-hydroxypropyl]-2,4 dihydro[1,2,4]triazole-3-thione]", "Efficacy in %": 56},
      {"compound": "CON=C(C(=O)OC)c1ccccc1CO/N=C(\\C)c1cccc(C(F)(F)F)c1", "note": "[(I), 2-[α-{[(α-methyl-3-trifluoromethylbenzyl)imino]oxy}-o-tolyl]glyoxylic acid methyl ester O-methyl oxime]", "Efficacy in %": 56}
    ]}
  ]
}
